Here are results for 17 compounds from patent US20130310384A1, “Sulfonamide-Containing Compounds” (THE BRIGHAM AND WOMEN'S HOSPITAL, INC., priority 2010, published 2013).

As usually defined, the melting point is the temperature of the solid-liquid transition.

Data set [1] relates to Human Aβ38, Aβ40 and Aβ42 levels. Put plainly: Acute in vivo efficacy study in hAPPSL transgenic mice (Aβ levels by immunosorbent assay). The following applies: 6-month-old female hAPPSL Tg mice, oral b.i.d. 50 and 100 mg/kg, 7 consecutive days. As for the experimental part: (§1) A preliminary acute efficacy study in 6-month-old female hAPPSL transgenic (Tg) mice (Rockenstein, E., Mallory, M., Mante, M., Sisk, A., and Masliah, E. (2001) J Neurosci Res 66, 573-582) was completed on the compound of Example 1. Mice were treated orally (b.i.d.) with two doses, 50 mg/kg (n=4) and 100 mg/kg (n=4) for 7 consecutive days. […] Human Aβ38, Aβ40 and Aβ42 levels were determined in the cortex, hippocampus, and cerebral spinal fluid (CSF) by an immunosorbent assay.

The nature of data set [2]: Tolerability in the acute in vivo study (7 consecutive days, oral b.i.d.).
Excerpt: [VIII] Embodiments can include any one or more of the following advantages. […] Selective inhibition of the cleavage of APP relative to that of the Notch receptor is believed to minimize certain unwanted side effects, such as lymphopoiesis and intestinal cell differentiation. […] This is an indication that there could be a minimization of side effects with these types of compounds
as §1

Where [3] appears, read: hAPPSL Tg mice, oral b.i.d. 50 and 100 mg/kg, 7 consecutive days.

In the case of `CC[C@@H](c1ccccc1)N(Cc1ccc(C(=O)O)cc1)S(=O)(=O)c1ccc(Cl)cc1` [Example 1, (S)-4-((4-Chloro-N-(1-phenylpropyl)phenylsulfonamido)methyl)benzoic acid], the “Reduction of Aβ40 in the hippocampus” value in data set [1] (p<0.01) is “Statistically significant reductions”. The “Reduction of Aβ38 in the hippocampus” value in data set [1] (p<0.05) is given as “Statistically significant reductions”. In addition, in data set [2] (100 mg/kg b.i.d. for 7 consecutive days, transgenic and nontransgenic mice), the “Toxicity in in vivo efficacy study” value is recorded as “no toxicity was observed”. Moreover, in data set [2] (setting [3]), the “Adverse side effects on any organ compared to vehicle controls” value is listed as “no obvious adverse side effects” and the Mortality during treatment result is reported as “No mice died”. `CC[C@@H](c1ccccc1)N(Cc1ccc(C(=O)N2CCC[C@@H]2CO)cc1)S(=O)(=O)c1ccc(Cl)cc1` [Example 104, 4-Chloro-N-(4-((R)-2-(hydroxymethyl)pyrrolidine-1-carbonyl)benzyl)-N-((S)-1-phenylpropyl)benzenesulfonamide] returned a melting point of 120 to 121 °C. Regarding `CC[C@@H](c1ccccc1)N(Cc1ccc(C(=O)OC)cc1)S(=O)(=O)c1ccc(Cl)c(Cl)c1` [Example 114, (S)-Methyl 4-((3,4-dichloro-N-(1-phenylpropyl)phenylsulfonamido)methyl)benzoate], the melting point was 98 to 99 °C. Still for that read-out and setting: the same measure for `CC[C@@H](c1ccccc1)N(Cc1ccc(C(=O)OC)cc1)S(=O)(=O)c1ccc(F)c(F)c1` [Example 115, (S)-Methyl 4-((3,4-difluoro-N-(1-phenylpropyl)phenylsulfonamido)methyl)benzoate]: 103 to 105 °C. Same read-out and setting: to `C[C@H](O)[C@H](CO)N(Cc1ccc(C(=O)O)cc1)S(=O)(=O)c1ccc(Cl)cc1` [Example 118, 4-((4-Chloro-N-((2S,3S)-1,3-dihydroxybutan-2-yl)phenylsulfonamido)methyl)benzoic acid] belongs 182 to 184 °C. On the same count and under the same terms, to `CC[C@@H](c1ccc(C(F)(F)F)cc1)N(Cc1ccc(C(=O)OC)cc1)S(=O)(=O)c1ccc(Cl)cc1` [Example 122, (S)-Methyl 4-((4-chloro-N-(1-(4-(trifluoromethyl)phenyl)propyl)phenylsulfonamido)methyl)benzoate] belongs 123 to 125 °C; to `CC[C@H](c1ccc(C(F)(F)F)cc1)N(Cc1ccc(C(=O)OC)cc1)S(=O)(=O)c1ccc(Cl)cc1` [Example 123, (R)-Methyl 4-((4-chloro-N-(1-(4-(trifluoromethyl)phenyl)propyl)phenylsulfonamido)methyl)benzoate], 120 to 121 °C.

`CC[C@@H](c1ccccc1)N(Cc1ccc(C(=O)OC)c(F)c1F)S(=O)(=O)c1ccc(Cl)cc1` [Example 124, (S)-Methyl 4-((4-chloro-N-(1-phenylpropyl)phenylsulfonamido)methyl)-2,3-difluorobenzoate] showed a melting point of 87 to 89 °C.

For `CC[C@@H](c1ccc(C(F)(F)F)cc1)N(Cc1ccc(C(=O)O)cc1)S(=O)(=O)c1ccc(Cl)cc1` [Example 125, (S)-4-((4-Chloro-N-(1-(4-(trifluoromethyl)phenyl)propyl)phenylsulfonamido)methyl)benzoic acid], the melting point was 101 to 103 °C. Same read-out and setting: to `CC[C@H](c1ccc(C(F)(F)F)cc1)N(Cc1ccc(C(=O)O)cc1)S(=O)(=O)c1ccc(Cl)cc1` [Example 126, (R)-4-((4-Chloro-N-(1-(4-(trifluoromethyl)phenyl)propyl)phenylsulfonamido)methyl)benzoic acid] belongs 105 to 107 °C; to `CC[C@@H](c1ccccc1)N(Cc1ccc(C(=O)O)c(F)c1F)S(=O)(=O)c1ccc(Cl)cc1` [Example 127, (S)-4-((4-Chloro-N-(1-phenylpropyl)phenylsulfonamido)methyl)-2,3-difluorobenzoic acid], 127 to 129 °C.

`C[C@H](O)[C@H](CO)N(Cc1ccc(C#N)cc1F)S(=O)(=O)c1ccc(Cl)cc1` [Example 131, 4-Chloro-N-(4-cyano-2-fluorobenzyl)-N-((2S,3S)-1,3-dihydroxybutan-2-yl)-benzenesulfonamide] showed a melting point of 112 to 114 °C. `C[C@H](O)[C@H](CO)N(Cc1ccc(C#N)cc1)S(=O)(=O)c1ccc(Cl)cc1` [Example 132, 4-Chloro-N-(4-cyanobenzyl)-N-((2S,3S)-1,3-dihydroxybutan-2-yl)-benzene-sulfonamide] yielded a melting point of 124 to 126 °C.

On to `COC(=O)c1cc(CN([C@@H](CO)c2ccccc2)S(=O)(=O)c2ccc(Cl)cc2)ccc1OC` [Example 133, (R)-Methyl 5-((4-chloro-N-(2-hydroxy-1-phenylethyl)phenylsulfonamido)methyl)-2-methoxybenzoate], for which the melting point fell in the range of 60 to 62 °C. With `COc1ccc(CN([C@@H](CO)c2ccccc2)S(=O)(=O)c2ccc(Cl)cc2)cc1C(=O)O` [Example 134, (R)-5-((4-Chloro-N-(2-hydroxy-1-phenylethyl)phenylsulfonamido)methyl)-2-methoxybenzoic acid], the melting point is 79 to 80 °C.

Compound `C[C@@H](c1ccc(Cl)cc1)N(Cc1ccc(C(=O)O)cc1)S(=O)(=O)c1ccc(Cl)cc1` [Example 141, (S)-4-((4-Chloro-N-(1-(4-chlorophenyl)ethyl)phenylsulfonamido)methyl)benzoic acid] displayed a melting point of 163 to 165 °C. `COC(=O)c1ccc(CN([C@@H](C)c2ccc(Cl)cc2)S(=O)(=O)c2ccc(Cl)cc2)cc1` [Example 141, (S)-Methyl 4-((4-chloro-N-(1-(4-chlorophenyl)ethyl)phenylsulfonamido)methyl)benzoate] came in with a melting point of 67 to 69 °C.
